For this assay, the system named is recombinant rabies virus 1088 strain (1088/GLuc). In words: microbe, parasite or virus in culture. Format: cell-based, rabies virus in Neuro-2a cells. The conditions noted are these: read-out: Anti-rabies activity.

Molecules are shown by their SMILES. Like-named read-outs stand apart in the source and are kept apart here.

As to `COc1ccc(CN2CC3CC4(C(=O)NCc5ccccc5)NC(=O)C3C2C4CC(C)C)cc1F` (stereo not shown) [IF-801], the IC50 (Lyssavirus rabies, N2a, 72 h) was below 10 µM.

Consider `COc1ccc(CN2C[C@@H]3C[C@H]4C(=O)N[C@]3(C(=O)NCc3ccccc3)[C@@H]2[C@@H]4CC(C)C)cc1` (relative stereo) [IB-5, (3S, 3aS, 6R′, 7R*, 7aS*) —N-benzyl-7-isobutyl-1-(4-methoxybenzyl)-5-oxooctahydro-3@H-3,6-methanopyrrolo[3,2-b]pyridine-3a-carboxamide], for which the IC50 is below 10 µM.

With `COc1ccc(CN2C[C@H]3C[C@]4(C(=O)NCc5ccccc5)NC(=O)[C@H]3[C@H]2[C@H]4CC(C)C)cc1` (relative stereo) [IF-6, (3S*, 3aR*, 6S*, 7R*, 7aR*) —N-benzyl-7-isobutyl-1-(4-methoxybenzyl)-4-oxooctahydro-6H-3,6-methanopyrrolo[3,2-c]pyridine-6-carboxamide], the IC50 (Lyssavirus rabies, N2a, 72 h) was below 10 µM.

For the compound `CC(C)CC(=O)OCC1=CCN2C3CC(NC(=O)Cc4ccccc4)C1C2CN(Cc1ccccc1)C3` (stereo not shown) [12aab], the IC50 (Lyssavirus rabies, N2a, 72 h) is below 10 µM.

Source of the values: patent US20250304616A1, “NOVEL PEPT[…] AND DESIGN” (priority 2020, published 2025).
